Experimental data as given in patent US9975944B2, “Synthetic peptides for the treatment of autoimmune diseases” (TEL HASHOMER MEDICAL RESEARCH INFRASTRUCTURE AND SERVICES …, priority 2013, dated 2018).
Square brackets hold non-standard residues; d marks the D form. Ends that are not written are not given here. Cit = NC(=O)NCCC[C@H](N)C(=O)O

Experiments:
TGF-β = TGF-β gene expression in peripheral blood mononuclear cells of RA patients, real-time PCR; assay type: cell-based, human; conditions: for mean expression levels of TGF-β: PBMC from 6 RA patients, compared with matched non-citrullinated peptide; for TGF-β gene expression level: PBMC of RA patients, 24 h incubation, peptide 0.25 or 1.25 μg/ml, compared with control non-citrullinated peptides
Source text: (§1) Citrullinated peptide derived from filaggrin, set forth in SEQ ID NO: 3, (HQCHQESTCitGRSRGRCGRSGS) designated Fil-Cit and citrullinated peptide derived from β-fibrinogen sequence (designated β-Fib-Cit) set forth in SEQ ID NO: 2 (CitPAPPPISGGGYCitACit) were examined for their ability to immunomodulate cytokine expression in peripheral blood mononuclear cells from rheumatoid arthritis patients. Matched non-citrullinated forms of those peptides served as control, and were designated Fil-NC and β-Fib-NC, respectively. All rheumatoid arthritis patients who participated in the study signed an informed consent and the research was approved by the Sheba Helsinki committee (approval No 9247-12-SMC). All procedures were conducted according to good clinical practice (GCP) regulations.
(§2) Peripheral blood mononuclear cells were isolated from blood samples using Ficoll-Paque density gradient centrifugation. The extracted cells were cultivated in the presence of Fil-Cit (0.25 μg/ml or 1.25 μg/ml), β-Fib-Cit (0.25 μg/ml or 1.25 μg/ml) and the control matched peptides. Total RNA was extracted 24 h after incubation with the peptides.
To further investigate the ex vivo effects of the citrullinated peptides on TGF-β expression, peripheral blood mononuclear cells obtained from 6 rheumatoid arthritis patients were cultured in the presence of citrullinated or control peptides. […] Up-regulation was likewise indicated in peripheral blood mononuclear cells incubated with Fil-Cit.

IFN-γ = IFN-γ gene expression in peripheral blood mononuclear cells of RA patients, real-time PCR; assay type: cell-based, human; conditions: PBMC of RA patients, 24 h incubation, peptide 0.25 or 1.25 μg/ml, compared with control non-citrullinated peptides
Source text: as §1, §2

TNF-α [1] = experiment: TNF-α gene expression in peripheral blood mononuclear cells of RA patients, real-time PCR; assay type: cell-based, human; conditions: PBMC of RA patients, 24 h incubation, peptide 0.25 or 1.25 μg/ml, compared with control non-citrullinated peptides
Source text: as §1, §2

IL-17 = IL-17 gene expression in peripheral blood mononuclear cells of RA patients, real-time PCR; assay type: cell-based, human; conditions: PBMC of RA patients, 24 h incubation, peptide 0.25 or 1.25 μg/ml, compared with control non-citrullinated peptides
Source text: as §1, §2

CD4+CD25+Foxp3+ T cells = experiment: Regulatory T cell proportion in PBMC of RA patients, FACS; assay type: cell-based, human; conditions: 48 hours
Procedure: Given the observed immunomodulation of cytokines following incubation of peripheral blood mononuclear cells obtained from rheumatoid arthritis patients with citrullinated peptides, the citrullinated peptides were tested for their ability to exert an effect on the T regulatory population proportion. Peripheral blood mononuclear cells of rheumatoid arthritis patients were cultured in the presence of 1.25 μg/ml of the peptides (Fil-Cit, β-Fib-Cit, and Cit-ME; FIGS. 6A, 6B and 6E, respectively, and Fil-NC, β-Fib-NC and Non-Cit-ME; FIGS. 6C, 6D and 6G, respectively), and Infliximab (FIG. 6F) for 48 hours. Cells cultured with medium devoid of the peptides and Infliximab served as control (FIG. 6H). Thereafter, cells were stained for the expression of CD4, CD25, and FoxP3 and analyzed by FACS. […] Mean percentage of CD4^+CD25^+Foxp3^+ T cells in the presence of Infliximab was increased by 14% as compared to medium (FIG. 6F and FIG. 6H, respectively). Thus, citrullinated peptides are able to induce the expansion of the T regulatory cell population.

pathogenic Th17 cells = experiment: Pathogenic Th17 cell proportion in PBMC of RA patients, FACS; assay type: cell-based, human; conditions: 48 hours
Procedure: To assess ability of the citrullinated peptides to affect the pathogenic Th17 cells population proportion, peripheral blood mononuclear cells of rheumatoid arthritis patients were cultured in the presence of citrullinated peptides, non-citrullinated peptides and Infliximab for 48 hours. In the last 4 hours phorbol12-myristate 13-acetate (PMA), ionomycin and brefeldin A were added to the culture. Thereafter cells were stained with antibodies against CD3 and IL-17. As shown in FIGS. 7A-7H, significant down-regulation in the mean percentage of pathogenic Th17 cells was detected following incubation with the citrullinated peptides: decrease of 21% (Fil-Cit; E), 5% (β-Fib-Cit; F), and 26% (Cit-ME; G) as compared with the non-citrullinated matched peptides (FIG. 7A-7C, respectively). Mean percentage of pathogenic Th17 cells in the presence of Infliximab was decreased by 48% (FIG. 7H) as compared to medium (FIG. 7D).

T cells = T cells apoptosis in PBMC of RA patients, annexin V/PI FACS; assay type: cell-based, human; conditions: 24 hours, gated on PI negative cells
Procedure: To assess the ability of the citrullinated peptides to affect T cells apoptosis, peripheral blood mononuclear cells of rheumatoid arthritis patients were cultured in the presence of citrullinated, non-citrullinated peptides and Infliximab for 24 hours. Cells were double-stained for annexin V-fluorescein isothiocyanate (FITC) and PI-PE (apoptosis/necrosis markers) and analyzed by FACS. The results in FIG. 8 are presented after gating for PI negative cells (live cells). The β-Fib-Cit and Cit-ME (FIGS. 8A and 8B, respectively) induced T cells apoptosis (by 20% and 18%, respectively) as compared with the non-citrullinated peptides Non-Cit-β-Fib (FIG. 8D) and Non-Cit-ME (FIG. 8E). Infliximab induced apoptosis by 28% (FIG. 8C) as compared with the medium control (FIG. 8F).

TNF-α [2] = experiment: TNF-α gene expression in mononuclear cells derived from synovial fluid of RA patients, real-time PCR; assay type: cell-based, human; conditions: compared to medium alone (control)
Procedure: To assess the effect of the Cit-ME peptide (SEQ ID NO: 1) on inflammatory related genes expression, peripheral blood mononuclear cells derived from synovial fluid rheumatoid arthritis patients were incubated with the Cit-ME multi-epitope citrullinated peptide for 24 h. The effect of the peptide on gene expression was compared also to the effect of infliximab, a TNF-α blocker, which is an antirheumatic drug that acts as an anti-inflammatory compound. […] Results were determined by real-time PCR.

AIA rats [3] = experiment: Adjuvant-Induced Arthritis (AIA) in rats, paw swelling and clinical signs; assay type: in vivo, rat; conditions: AIA rats, 8 subcutaneous injections of 300 μg per rat on alternate days from day 7
AIA rats [4] = experiment: Histological signs of arthritis in ankle joints of AIA rats; assay type: in vivo, rat; conditions: day 28 post disease induction, H&E, untreated 1.75±0.41
Procedure: To evaluate the histological signs of arthritis, rats were sacrificed and ankle joints were collected on day 28 post disease induction. The joints were fixed immediately for 24 hours in 4% paraformaldehyde, then decalcified in rapid bone decalcifier (RDO; Apex Engineering, Plainfield, Ill., USA) for 6 hours at room temperature, and further fixed in 4% paraformaldehyde before embedding in paraffin. Sections (5 μm thick) were rehydrated in a graded ethanol series and stained with haematoxylin & eosin (H&E). FIGS. 11A to 11C show representative H&E stained joint tissue sections (magnification ×100). Arrowheads denote the infiltrated zones, scale bar=200 μm. The specimens were scored for severity of inflammation in the synovium, pannus formation, cartilage, and bone erosion. A close correlation between the clinical signs and the histopathological findings was found.

[5] = system: CD4+CD25+FoxP3+ regulatory T cells; experiment: Regulatory T cells in splenocytes of AIA rats, FACS; assay type: in vivo, rat
Source text: Splenocytes from rats at day 28 post disease induction were stained with anti-CD4-FITC, anti-CD25-APC, and anti-Foxp3-PE (eBioscience) mAbs and analyzed by FACS. In representative outputs as shown in FIG. 12A-C, Regulatory T cells subpopulation was higher in Cit-ME treated rats (9%), compared to 7% and 6.2% in Non-Cit-ME peptide and untreated rats, respectively. Statistical analysis of the results is shown in FIG. 12D (Cit-ME n=9, Non-Cit-ME n=11, untreated rats n=7).

[6] = system: T cells derived from the spleen; experiment: Apoptosis of T cells from the spleen of AIA rats, Annexin V/PI staining; assay type: in vivo, rat; conditions: gated for PI and CD4+, two independent experiments, control 13±1%
Procedure: To assess apoptosis of T cells derived from the spleen of treated rats, the Annexin V/PI staining method was preformed. FIGS. 14A-14C are representative histograms of cells treated with Cit-Me (FIG. 14A), non-Cit-Me (FIG. 14B) or untreated (FIG. 14C). The histograms present apoptosis measured by Annexin V^+. First, cells were gated for PI and CD4^+ and next analyzed for percentage of Annexin-V positive cells. […] A significant increase (p<0.01) in the mean apoptotic rate was determined in cells from the spleen of Cit-ME treated rats (19.5±1.8%) in comparison with Non-Cit-ME or control (13.8±1.3% and 13±1%, respectively).

[7] = 1.25 μg/ml peptide, compared with non-citrullinated matched peptide
[8] = PMA, ionomycin and brefeldin A in last 4 hours, compared with non-citrullinated matched peptide

| Substance | mean expression levels of TGF-β (TGF-β) | TGF-β gene expression level (TGF-β) | IFN-γ gene expression level (IFN-γ) | TNF-α gene expression level (TNF-α [1]) | IL-17 gene expression level (IL-17) | increase in mean percentage of CD4+CD25+Foxp3+ T cells (CD4+CD25+Foxp3+ T cells; [7]) [%] | decrease in mean percentage of pathogenic Th17 cells (pathogenic Th17 cells; [8]) [%] | induction of T cells apoptosis (T cells; compared with matched non-citrullinated peptide) [%] | expression level of TNF-α (TNF-α [2]) | increase in mean percentage of CD4+CD25+Foxp3+ T cells (CD4+CD25+Foxp3+ T cells; compared to medium) [%] | decrease in mean percentage of pathogenic Th17 cells (pathogenic Th17 cells; compared to medium) [%] | induction of apoptosis (T cells; compared with the medium control) [%] | clinical score post immunization (AIA rats [3]) | histological inflammatory score (AIA rats [4]) | percentage of CD4+CD25+FoxP3+ regulatory T cells subset, statistical analysis ([5]; spleens of AIA rats, day 28, untreated 7.17±0.31) [%] | Regulatory T cells subpopulation, representative outputs ([5]; splenocytes of AIA rats, day 28 post disease induction, untreated 6.2%) [%] | mean apoptotic rate (Annexin-V positive cells) [6] [%] |
| --- | --- | --- | --- | --- | --- | --- | --- | --- | --- | --- | --- | --- | --- | --- | --- | --- | --- |
| CitPAPPPISGGGYCitACit ([Cit]PAPPPISGGGY[Cit]A[Cit]) [β-Fib-Cit] | significantly up-regulated | significantly up-regulated | down-regulated | down-regulated | down-regulated | 50 | 5 | 20 |  |  |  |  |  |  |  |  |  |
| Infliximab: a TNF-α blocker, an antirheumatic drug that acts as an anti-inflammatory compound [reference compound] |  |  |  |  |  |  |  |  | downregulated | 14 | 48 | 28 |  |  |  |  |  |
| VRLRSSVESTRGRSRPAPPPARGLT [Non-Cit-ME] |  |  |  |  |  |  |  |  |  |  |  |  | Reduction in clinical score | 1.28±0.6 | 6.97±0.22 | 7 | 13.8±1.3 |
| HQCHQESTCitGRSRGRCGRSGS (HQCHQEST[Cit]GRSRGRCGRSGS; cysteine pairing not given here) [Fil-Cit, citrullinated peptide derived from filaggrin] | Up-regulation | significantly up-regulated | down-regulated | down-regulated | down-regulated | 56 | 21 |  |  |  |  |  |  |  |  |  |  |
